Assay results: US11400137B2, “Rectal insulin for treatment of inflammatory bowel diseases” (University of Copenhagen, priority 2016, dated 2022)
Entries after “also recorded” stand apart in the source; their conditions may differ. Like-named read-outs stand apart in the source and are kept apart here.

What was measured:
[1] = test system: mice with DSS induced colitis (AOM+DSS); assay: AOM+DSS colitis/carcinogenesis model, rectal insulin intervention study (2% DSS); format: in vivo, mouse
Text: In the azoxymethane and dextran sulphate sodium (AOM/DSS) carcinogenesis/colitis model, colitis is induced by DSS which promotes AOM induced tumours. This AOM/DSS model was used on mice having intestinal specific inactivation of the insulin receptor. These mice were obtained by crossing mice (B6.129S4(FVB)-Insrtm1Khn/J) with loxP sites flanking exon 4 in the insulin receptor gene with mice (B6.Cg-Tg(Vil-cre)997Gum/J) expressing the cre-recombinase under the villin promoter (both mice were obtained commercially from the Jackson Laboratory).
The discovery that inactivated insulin signalling in the intestine augments inflammation and stimulates development of inflammation induced tumours, prompted us to the invention that insulin might be used to treat colitis. This was investigated in an intervention study. Thus, wild type mice were set up in the AOM+DSS regime and divided into two groups. One group of mice was treated with rectal administration of insulin while the control group was treated with vehicle (phosphate buffered saline; PBS).
(§1) The insulin treatment regime was as follows: Each day during DSS treatment and the following first 4 days during remission (no DSS treatment) the mice were anaesthetized with isoflurane and 600 μl PBS or PBS+0.06 units human insulin was injected intra rectally. For the injection, a syringe fitted with a flexible silicone feeding needle (for rodents) was used. The mice were placed on their back with the lower end elevated for 10 minutes while still in isoflurane anaesthesia. After recovery from anaesthesia the mice were returned to their cages. The mice were weighed daily and signs of rectal bleeding scored.

[2] = test system: mice with DSS induced colitis (AOM+DSS); assay: AOM+DSS + rectal insulin dose-response experiment (3% DSS); format: in vivo, mouse
Experimental: as §1
In this experiment 3% DSS was used as opposed to 2% DSS in the previous experiment (FIG. 3). During induction of inflammation there is a significant (FIG. 6, t-test, p<0.05) effect of the administration of 6 u/kg insulin whereas there is no effect of only 2 u/kg administration. Specifically the weight loss (weight at the end of DSS treatment−the weight at the beginning of the DSS treatment) is 16% less in the 6 u/kg insulin group compared to the PBS group (4.3 g in the PBS group versus 3.6 g in the 6 u/kg insulin group; see FIG. 5.

insulin receptor mRNA = assay: Colonic crypts cultured as organoids with and without insulin; format: cell-based; settings: insulin added to organoid medium vs none (FIG. 8)
Experimental: To investigate the effect of insulin on isolated colonic epithelial cells, colonic crypts were cultured as organoids with and without the addition of insulin to the medium. […] Several mechanisms are possible. First it is possible that insulin induces differentiation of the epithelial cells and that this process increases […]. Alternatively the insulin receptor may directly stimulate its own mRNA expression by yet undescribed mechanisms. The finding is important because the positive feedback loop is expected to prolong the duration of the insulin effect on the colonic mucosa.

COX2 mRNA = COX2 mRNA expression in colons of mice with AOM+DSS induced inflammation; format: in vivo, mouse
Text: Cyclooxygenase 2 (COX2/PTGS2) catalyzes the first step in the synthesis of the inflammatory mediators, the prostaglandins, from arachidonic acid. The expression of COX2 is increased in the colonic epithelial cells from patients with active colonic CD and UC and is therefore a biomarker for colonic inflammation in IBD.

[3] = Experimental: C57BL6 mice were treated with 3% DSS in their drinking water. At the peak of inflammation, the mice were treated with rectal insulin and the blood glucose concentration measured at 0, 15, 30, 60, 90, 120 and 240 minutes. Anaesthesia was induced after the first measurement was taken at time point zero. Anaesthesia was complete at time point 15 minutes and rectal insulin instillation or PBS control instillation also begun at time point 15 minutes.
Car3 mRNA = Car3 mRNA expression in colons during AOM+DSS induced intestinal inflammation; format: in vivo, mouse
Text: On the contrary, in the INSR KO mice with inactivated insulin receptor in the intestinal epithelial cells the expression of Car3 was not increased by inflammation. Therefore it was investigated whether Car3 is a target for intestinal insulin signalling. The methodology described in Example 2 was followed.

colonic epithelial cells = test system: colonic epithelial cells
Text: Sections of mouse colons from INSR KO mice and INSR Flox mice were stained with an antibody against the proliferation marker Ki67. Thereafter, sections of inflamed (DSS induced) colons obtained from C57BL6 mice treated with either PBS, 2 u or 6 units/kg insulin were also stained with an antibody directed against the Ki67 proliferation marker and the number of KI67 positive cells per crypt counted.

[4] = 6 u/kg insulin, p<0.05 vs PBS, Fischer's exact test

Substance: insulin
- weight loss from DSS start (day 1) to beginning of remission (day 8) ([1]; 2% DSS, 0.06 units human insulin in 600 μl PBS intra rectally daily, PBS group 2.56 g, t-test p<0.05): 1.68 g
- mice with tumours with a size greater than 2 mm ([1]; PBS group 1.3 >2 mm tumours per mouse, p<0.05): 0 mice
- mice showing signs of rectal bleeding during treatment ([1]; all PBS mice showed bleeding, p<0.05): two
- inflammation score by colonoscopy, late remission phase ([1]; blinded scoring of endoscopy videos, vs PBS): significant lower (and better) inflammation score; also recorded: improves inflammation score
- body weight course (FIG. 3) ([1]; daily rectal recombinant human insulin 2 units/kg): re-gained weight
- Rectal bleeding: No bleeding (number of mice) ([2]; 2 u/kg insulin, PBS group 4): 8
- Rectal bleeding: Bleeding (number of mice) ([2]; 2 u/kg insulin, PBS group 9): 3
- weight increase in remission phase, day 8 to day 11 ([2]; 3% DSS, 2 and 6 u/kg rectal insulin (FIG. 7)): dose-dependent increase in weight
- effect on weight loss during induction of inflammation ([2]; 3% DSS, 2 u/kg rectal insulin): no effect
- weight loss less than in the PBS group ([2]; 3% DSS, 6 u/kg rectal insulin): 16%
- weight loss (weight at end of DSS treatment − weight at beginning) ([2]; 3% DSS, 6 u/kg rectal insulin, PBS group 4.3 g, p<0.05): 3.6 g
- Rectal bleeding: Bleeding (number of mice) [2, 4]: 3
- Rectal bleeding: No bleeding (number of mice) [2, 4]: 12
- concentration of insulin receptor mRNA (insulin receptor mRNA): increased almost two-fold
- COX2 mRNA expression in colon (COX2 mRNA; 2 u/kg rectal insulin): significantly reduce
- COX2 mRNA expression in colon (COX2 mRNA; 6 u/kg rectal insulin): significantly reduce
- blood glucose concentration vs PBS control ([3]; 3% DSS, peak of inflammation, 0-240 minutes, rectal insulin): No significant difference
- systemic uptake of insulin following rectal instillation ([3]; inferred from blood glucose): negligible
- Car3 mRNA expression in colon (Car3 mRNA; 2 u/kg rectal insulin): not
- Car3 mRNA expression in colon (Car3 mRNA; 6 u/kg rectal insulin): significantly increased
- Ki67 positive cells per crypt, staining pattern vs PBS (colonic epithelial cells; 2 u/kg rectal insulin): No significant difference
- Ki67 positive cells per crypt, staining pattern vs PBS (colonic epithelial cells; 6 units/kg rectal insulin): No significant difference
